Patent US4954507A, “1-tertiary-alkyl-substituted naphthyridine carboxylic acid antibacterial agents” (priority 1988, dated 1990)
Values after ≈ are worked out from the molar mass of the structure shown. Like-named read-outs stand apart in the source and are kept apart here.

Experiments:
Enterobacter cloacae = assay: MIC, microtitration dilution method, E. clo.; format: cell-based
Klebsiella pneumoniae = assay: MIC, K. pneum.; format: cell-based
Experimental: (§1) The compounds of this invention display antibacterial activity when tested by the microtitration dilution method reported by Heifetz et al., Antimicr. Agents & Chemoth., 6. 124 (1974). Minimum inhibitory concentrations (MICs, in μg/ml) for but a few representative compounds according to this invention were determined by the above-mentioned method.

Streptococcus faecalis = assay: MIC, microtitration dilution method, S. faecal.; format: cell-based
Experimental: as §1

Staphylococcus aureus = assay: MIC, microtitration dilution method, S. aur.; format: cell-based
Experimental: as §1

Streptococcus faecium = assay: MIC, microtitration dilution method, S. faeci.; format: cell-based
Experimental: as §1

Pseudomonas aeruginosa = assay: MIC, microtitration dilution method, P. aer.; format: cell-based
Experimental: as §1

Escherichia coli = assay: MIC, microtitration dilution method, E. coli; format: cell-based
Experimental: as §1

physchem = conditions: water
[1] = in words; from Tables 2, 3 and 4
Klebsiella oxytoca = assay: MIC, microtitration dilution method, K. oxyto.; format: cell-based; conditions: Table 2
Experimental: as §1

[2] = Enterobacter cloacae, Table 3, E. clo., read-out: MIC
[3] = Table 3, K. pneum., read-out: MIC
[4] = Enterococcus faecalis, Table 3, S. faecal., read-out: MIC
[5] = Staphylococcus aureus, Table 3, S. aur., read-out: MIC
[6] = Enterococcus faecium, Table 3, S. faeci., read-out: MIC
[7] = Pseudomonas aeruginosa, Table 3, P. aer., read-out: MIC
[8] = Escherichia coli, Table 3, E. coli, read-out: MIC

SMILES | MIC (Enterobacter cloacae; Enterobacter cloacae) | MIC (Klebsiella pneumoniae) | MIC (Streptococcus faecalis; Enterococcus faecalis) | MIC (Staphylococcus aureus; Staphylococcus aureus) | MIC (Streptococcus faecium; Enterococcus faecium) | MIC (Pseudomonas aeruginosa; Pseudomonas aeruginosa) | MIC (Escherichia coli; Escherichia coli) | MIC (Escherichia coli; [8]) | further results
CC(C)(C)n1cc(C(=O)O)c(=O)c2cc(F)c(N3CCC(N)C3)nc21 (stereo not shown) [Example 36, 7-(3-AMINO-1-PYRROLIDINYL)-1-(1,1-DIMETHYLETHYL)-1,4-DIHYDRO-6-FLUORO-4-OXO-1,8-NAPHTHYRIDINE-3-CARBOXYLIC ACID] | 0.06 µg/mL (≈ 0.172 µM) | 0.13 µg/mL (≈ 0.373 µM) | 0.25 µg/mL (≈ 0.718 µM) | 0.015 µg/mL (≈ 0.0431 µM) | 1 µg/mL (≈ 2.87 µM) | 0.25 µg/mL (≈ 0.718 µM) | 0.13 µg/mL (≈ 0.373 µM) |  | 
CC(C)(C)n1cc(C(=O)O)c(=O)c2cc(F)c(N3CC[C@@H](N)C3)nc21 [Example 45, 7-[(R)-3-AMINO-PYRROLIDINYL]-1-(1,1-DIMETHYLETHYL)-1,4-DIHYDRO-6-FLUORO-4-OXO-1,8-NAPHTHYRIDINE-3-CARBOXYLIC ACID, METHANESULFONATE] | 0.06 µg/mL | 0.13 µg/mL | 0.13 µg/mL | 0.15 µg/mL | 1 µg/mL | 0.25 µg/mL | 0.06 µg/mL |  | 
CCn1cc(C(=O)O)c(=O)c2cc(F)c(N3CCNCC3)cc21 [Nor., 1-ethyl-6-fluoro-1,4-dihydro-7-(1-piperazinyl)-4-oxo-quinoline-3-carboxylic acid, reference compound] |  |  |  |  |  |  |  | 0.06 µg/mL (≈ 0.188 µM) | MIC (Enterobacter cloacae; [2]): 0.06 µg/mL (≈ 0.188 µM); MIC (Klebsiella pneumoniae; [3]): 0.03 µg/mL (≈ 0.0939 µM); MIC (Streptococcus faecalis; [4]): 2 µg/mL (≈ 6.26 µM); MIC (Staphylococcus aureus; [5]): 0.25 µg/mL (≈ 0.783 µM); MIC (Streptococcus faecium; [6]): 8 µg/mL (≈ 25.1 µM); MIC (Pseudomonas aeruginosa; [7]): 0.5 µg/mL (≈ 1.57 µM)
O=C(O)c1cn(C2CC2)c2cc(N3CCNCC3)c(F)cc2c1=O [Cip., 1-cyclopropyl-6-fluoro-1,4-dihydro-7-(1-piperazinyl)-4-oxo-quinoline-3-carboxylic acid, reference compound] |  | 0.03 µg/mL (≈ 0.0905 µM) |  | 0.13 µg/mL (≈ 0.392 µM) | 8 µg/mL (≈ 24.1 µM) | 0.13 µg/mL (≈ 0.392 µM) |  | 0.015 µg/mL (≈ 0.0453 µM) | 
CC(C)(C)n1cc(C(=O)O)c(=O)c2cc(F)c(N3C[C@H]4C[C@@H]3CN4)nc21 [Example 30] |  |  |  |  |  |  |  | 0.06 µg/mL (≈ 0.166 µM) | MIC (Enterobacter cloacae; [2]): 0.03 µg/mL (≈ 0.0832 µM); MIC (Klebsiella pneumoniae; [3]): 0.06 µg/mL (≈ 0.166 µM); MIC (Streptococcus faecalis; [4]): 0.25 µg/mL (≈ 0.694 µM); MIC (Staphylococcus aureus; [5]): 0.06 µg/mL (≈ 0.166 µM); MIC (Streptococcus faecium; [6]): 2 µg/mL (≈ 5.55 µM); MIC (Pseudomonas aeruginosa; [7]): 0.13 µg/mL (≈ 0.361 µM); solubility (physchem): 80 µg/mL (≈ 222 µM); combination of anti-bacterial, toxicity, and water-solubility properties [1]: highly advantageous combination of the above mentioned properties
CC(C)(C)n1cc(C(=O)O)c(=O)c2cc(F)c(N3CC[C@H](N)C3)nc21 [Example 46, 7-[(S)-3-amino-1-pyrrolidinyl]-1-(1,1-dimethylethyl)-6-fluoro-1,4-dihydro-4-oxo-1,8-naphthyridine-3-carboxylic acid] | 0.008 µg/mL (≈ 0.023 µM) | 0.03 µg/mL (≈ 0.0861 µM) | 0.03 µg/mL (≈ 0.0861 µM) | 0.008 µg/mL (≈ 0.023 µM) | 0.25 µg/mL (≈ 0.718 µM) | 0.06 µg/mL (≈ 0.172 µM) | 0.015 µg/mL (≈ 0.0431 µM) |  | 
C[C@H]1CN(c2nc3c(cc2F)c(=O)c(C(=O)O)cn3C(C)(C)C)C[C@H]1N (relative stereo) [Example 47, 7-(cis-3-amino-4-methyl-pyrrolidin-1-yl)-1-(1,1-dimethylethyl)-1,4-dihydro-6-fluoro-4-oxo-1,8-naphthyridine-3-carboxylic acid] | 0.13 µg/mL (≈ 0.359 µM) | 0.03 µg/mL (≈ 0.0828 µM) | 0.13 µg/mL (≈ 0.359 µM) | 0.015 µg/mL (≈ 0.0414 µM) | 1 µg/mL (≈ 2.76 µM) | 0.5 µg/mL (≈ 1.38 µM) | 0.25 µg/mL (≈ 0.69 µM) |  | 
CS(=O)(=O)O.C[C@@H]1CN(c2nc3c(cc2F)c(=O)c(C(=O)O)cn3C(C)(C)C)C[C@H]1N (relative stereo) [Example 48, 7-(trans-3-amino-4-methylpyrrolidin-1-yl)-1-(1,1-dimethylethyl)-1,4-dihydro-6-fluoro-4-oxo-1,8-naphthyridine-3-carboxylic acid (methanesulfonate)] | 0.015 µg/mL | 0.06 µg/mL | 0.06 µg/mL | 0.008 µg/mL | 0.5 µg/mL | 0.25 µg/mL | 0.015 µg/mL |  | 
CC1CN(c2nc3c(cc2F)c(=O)c(C(=O)O)cn3C(C)(C)C)CC1N (mixture of isomers) [Example 42] | 0.015 µg/mL | 0.06 µg/mL | 0.25 µg/mL | 0.03 µg/mL | 1 µg/mL | 0.25 µg/mL | 0.008 µg/mL |  | 
CC(C)(C)n1cc(C(=O)O)c(=O)c2cc(F)c(N3C[C@@H]4CC[C@H]3CN4)nc21 [Example 23, 7-(1S,4S-2,5-DIAZABICYCLO[2.2.2]OCTAN-2-YL)-1-(1,1-DIMETHYLETHYL)-1,4-DIHYDRO-6-FLUORO-4-OXO-1,8-NAPHTHYRIDINE-3-CARBOXYLIC ACID] |  |  |  |  |  |  |  |  | MIC (Enterobacter cloacae; Table 2, E. clo.): 60 µg/mL (≈ 160 µM); MIC (Streptococcus faecalis; Table 2, S. faecal.): 500 µg/mL (≈ 1340 µM); MIC (Klebsiella oxytoca): 500 µg/mL (≈ 1340 µM); MIC (Staphylococcus aureus; Table 2, S. aur.): 30 µg/mL (≈ 80.1 µM); MIC (Streptococcus faecium; Table 2, S. faeci.): 2000 µg/mL (≈ 5340 µM); MIC (Pseudomonas aeruginosa; Table 2, P. aer.): 1000 µg/mL (≈ 2670 µM); MIC (Escherichia coli; Table 2, E. coli): 130 µg/mL (≈ 347 µM)
